Laboratory results taken from ChEMBL document CHEMBL2331428, “Synthesis of tetrazole analogues of phosphonohydroxamic acids: an attempt to improve the inhibitory activity against the DXR” (Bioorg Med Chem Lett, 2013).
Activity calls are given as the source filed them. No cut-off for these calls is given here.

Test system: not listed separately
Assay: Inhibition of N-terminal His6-tagged Escherichia coli DXR after 2 mins in presence of NADPH

SMILES | IC50 [mM]
CN(O)C(=O)CCc1nnn[nH]1 | 47
CN(O)C(=O)CCCP(=O)(O)O | 4.8e-05
CN(O)C(=O)CCCCc1nnn[nH]1 | 4.9
O=C(CCCCc1nnn[nH]1)NO | 44

Further molecules by falling IC50, results first:

IC50 [mM] | SMILES
0.8 | CN(O)C(=O)CCCc1nnn[nH]1
3.2e-05 | O=CN(O)CCCP(=O)(O)O [FOSMIDOMYCIN]

Test system: Escherichia coli
Assay: Antibacterial activity against Escherichia coli assessed as growth inhibition at 400 nmol by disc diffusion method
Type: functional, organism-based

SMILES | growth inhibition (GI)
CN(O)C(=O)CCc1nnn[nH]1 | inactive
CN(O)C(=O)CCCc1nnn[nH]1 | inactive
CN(O)C(=O)CCCCc1nnn[nH]1 | inactive
O=C(CCCCc1nnn[nH]1)NO | inactive
